One data set has as its system Mtb H37Rv. As to the kind of experiment: MIC against Mtb H37Rv, Alamar Blue broth microdilution. In kind it is cell-based, Mycobacterium tuberculosis.
Data set [1] is described as follows: Kinetic aqueous solubility at pH 7.4. In kind it is physicochemical. The procedure: 3) In vitro ADME - assays
The kinetic solubility assay was p erfo rmed using a miniaturised shake flask method. 10 mM stock solutions of each of the test compounds were used to prepare calibration standards (10-220 µM) in DMSO. The same 10 mM stock soluti ons were accurately dispensed in duplicat e into 96-well plates and the DMSO dried down (MiVac GeneVac, 90 min, 37 °C). Thereafter, the samples were reconstituted (200 µM) in phosphate buffered saline (pH 7. 4) and shaken (20 hours,25 °C). The solutions were centrifuged, and the supernatant was an alysed by means of HPLC-DAD (Agilent 1200 Rapid Resolution HPLC with a diode array detector). Best fit calibration curves were constructed using the calibration standards, which were used to determine the aqueous samples’ solubility.4
The metabolic stability assay was performed in dup licate in a 96-well micro t itre plate. The test compounds (0.1 µM) were incubated individually in mouse, rat and pooled human liver microsomes (final protei n concentration of 0.4 m g/mL; XenoTech, Lenexa, KS), suspended in 0.1M phosphate buffer (pH 7.4) for predetermined time points, in the presence and abs ence of the cofactor NADPH (1 mM). Reactions were quenched by adding 300 µL of ice cold acetonitrile containing internal standard (carbamazepine, 0.0236 µg/mL). The samples were centrifuged and test in the supernatant were an alysed by means of LC-MS/MS ((Agilent Rapid Resolution HPLC, AB SCIEX 4500 MS). The rel ative loss of parent compound over time w as monitored and plots (concentration vs. time) were prepared per compound to determine the first order rate constant for compound depletion. This was in turn used to calculate h alf-life, in vitro intrinsic clearance and in vivo hepatic extraction ratio. Metabolite search es were not conducted during the met abolic stability assay.5

The test system of another data set is WT H37Rv. Nature of the data set: microbe, parasite or virus in culture. In kind it is cell-based, M. tuberculosis. The settings on record: Mycobacterium tuberculosis.
The next data set concerns mmpL3-TetON. Nature of the data set: microbe, parasite or virus in culture. In kind it is cell-based, M. tuberculosis. The settings on record: for MIC50 / MIC: Mycobacterium tuberculosis.
The mark [2] stands for this setting: phosphate buffered saline, pH 7.4, aqueous (kinetic) solubility at pH 7.4, read-out: Solubility.
[3] abbreviates: Mycobacterium tuberculosis, H37RV, supplement csv, medium not stated.
[4] abbreviates: Mycobacterium tuberculosis, H37RV, 168 h.

In brackets after ≈: the same amount, converted by molar mass. Where two headings read alike, the source gives them in different places.

In the case of “2-(3-Methyl-5-oxo-2,5-dihydro-1H-pyrazol-1-yl)-6-phenylpyrimidin-4(1H)-one [Compound 13]”, the MIC with Mtb H37Rv is listed as greater than 125 µM; with Mtb H37Rv (supplement csv, medium not stated), greater than 125 µM. Further, the solubility at 20 h in data set [1] (aqueous (kinetic) solubility at pH 7.4, read-out: Solubility) is 190 µM.
As to `COc1cc(-c2ccccc2)nc(-n2nc(C)cc2C)n1` [Compound 3, 2-(3,5-Dimethyl-1H-pyrazol-1-yl)-4-methoxy-6-phenylpyrimidine], the solubility at 20 h in data set [1] (setting [2]) was no less than 200 µM.
On the same count and under the same terms, with `Cc1cc(C)n(-c2nc(-c3ccccc3)cc(=O)n2C)n1` [Compound 4, 2-(3,5-Dimethyl-1H-pyrazol-1-yl)-3-methyl-6-phenylpyrimidin-4(3H)-one] the figure was no less than 200 µM.
In the case of `Cc1cc(O)nc(-n2nc(C)cc2C)n1` [Compound 11, 2-(3,5-Dimethyl-1H-pyrazol-1-yl)-6-methylpyrimidin-4(3H)-one], the loss in activity in the data set on Mtb H37Rv (CH3 or CF3 at R1 instead of phenyl) is reported as 10–15 fold.
Regarding `Cn1ccnc1-c1nc(-c2ccccc2)cc(=O)[nH]1` [Compound 18, 2-(1-Methyl-1H-imidazole-2-yl)-6-phenylpyrimidin-4(1H)-one], the solubility at 20 h in data set [1] (setting [2]) was no less than 200 µM.
Consider `Cc1cc(C)n(-c2nc(-c3ccc(F)cc3)cc(=O)[nH]2)n1` [Compound 19, 2-(3,5-Dimethyl-1H-pyrazol-1-yl)-6-(4-fluorophenyl)pyrimidin-4(3H)-one], for which, in the data set on Mtb H37Rv (setting [3]), the MIC stood at 1 µM (≈ 0.284 µg/mL).
With `Cc1cc(C)n(-c2nc(-c3cccnc3)cc(=O)[nH]2)n1` [Compound 21, 2-(3,5-Dimethyl-1H-pyrazol-1-yl)-6-(pyridin-3-yl)pyrimidin-4(3H)-one], in data set [1] (setting [2]), the solubility at 20 h was no less than 200 µM.
In the case of `Cc1cc(C)n(-c2nc(C(=O)Nc3ccc(F)cc3)cc(=O)[nH]2)n1` [Compound 26, 2-(3,5-Dimethyl-1H-pyrazol-1-yl)-N-(4-fluorophenyl)-6-oxo-1,6-dihydropyrimidine-4-carboxamide], in data set [1] (setting [2]), the solubility at 20 h is no less than 200 µM.
On the same count and under the same terms, with `CCc1cc(C)nn1-c1nc(C(F)(F)F)cc(=O)[nH]1` [Compound 30, 2-(5-Ethyl-3-methyl-1H-pyrazol-1-yl)-6-(trifluoromethyl)pyrimidin-4(3H)-one] the figure was no less than 200 µM.
Turning to `Cc1cc(-c2ccccc2)n(-c2nc(C(F)(F)F)cc(=O)[nH]2)n1` [Compound 32, 2-(3-Methyl-5-phenyl-1H-pyrazol-1-yl)-6-(trifluoromethyl)pyrimidin-4(3H)-one], the solubility at 20 h in data set [1] (setting [2]) is no less than 200 µM.
As to `Cc1cc(N)n(-c2nc(C(F)(F)F)cc(=O)[nH]2)n1` [Compound 33, 2-(5-Amino-3-methyl-1H-pyrazol-1-yl)-6-(trifluoromethyl)pyrimidin-4(3H)-one], the solubility at 20 h in data set [1] (setting [2]) was no less than 200 µM.
In the case of `CCNc1cc(C)nn1-c1nc(C(F)(F)F)cc(=O)[nH]1` [Compound 34, 2-(5-(Ethylamino)-3-methyl-1H-pyrazol-1-yl)-6-(trifluoromethyl)pyrimidin-4(3H)-one], the MIC in the data set on Mtb H37Rv (setting [3]) stood at 6 µM (≈ 1.72 µg/mL).
Turning to `Cc1cc(NCCN(C)C)n(-c2nc(C(F)(F)F)cc(=O)[nH]2)n1` [Compound 36, 2-(5-((2-(Dimethylamino)ethyl)amino)-3-methyl-1H-pyrazol-1-yl)-6-(trifluoromethyl)pyrimidin-4(3H)-one], the solubility at 20 h in data set [1] (setting [2]) is no less than 200 µM.
Same read-out and setting: with `Cc1cc(NCCO)n(-c2nc(C(F)(F)F)cc(=O)[nH]2)n1` [Compound 37, 2-(5-((2-Hydroxyethyl)amino)-3-methyl-1H-pyrazol-1-yl)-6-(trifluoromethyl)pyrimidin-4(3H)-one] the figure was no less than 200 µM.
For `COCCNc1cc(C)nn1-c1nc(C(F)(F)F)cc(=O)[nH]1` [Compound 38, 2-(5-((2-Methoxyethyl)amino)-3-methyl-1H-pyrazol-1-yl)-6-(trifluoromethyl)pyrimidin-4(3H)-one], the MIC against Mtb H37Rv (setting [4]) is 1.5 to 2 µM (≈ 0.476 to 0.635 µg/mL); in the data set with WT H37Rv (experiment: Follow-Up), 1.5 µM (≈ 0.476 µg/mL); in the data set on WT H37Rv (experiment: Initial), 1.1 µM (≈ 0.349 µg/mL); against mmpL3-TetON (experiment: Initial), 1.1 µM (≈ 0.349 µg/mL). In data set [1] (setting [2]), the solubility at 20 h is no less than 200 µM. Also, the MIC50 with WT H37Rv (experiment: Follow-Up) was 0.87 µM (≈ 0.276 µg/mL); in the data set with WT H37Rv (experiment: Initial), 0.46 µM (≈ 0.146 µg/mL); against mmpL3-TetON (experiment: Follow-Up) it was 0.78 µM (≈ 0.247 µg/mL); against mmpL3-TetON (experiment: Initial), 0.47 µM (≈ 0.149 µg/mL). In the data set with mmpL3-TetON, the “change in MIC on transcriptional silencing of mmpL3” value is on record as “no significant change”.
On to `Cc1cc(NC2CCOCC2)n(-c2nc(C(F)(F)F)cc(=O)[nH]2)n1` [Compound 39, 2-(3-Methyl-5-((tetrahydro-2H-pyran-4-yl)amino)-1H-pyrazol-1-yl)-6-(trifluoromethyl)pyrimidin-4(3H)-one], for which the MIC against Mtb H37Rv (setting [4]) was 1.5 to 2 µM (≈ 0.515 to 0.687 µg/mL); against Mtb H37Rv (setting [3]), 1 µM (≈ 0.343 µg/mL).
In the data set with Mtb H37Rv (setting [4]), `Cc1cc(Nc2ccc(F)cc2F)n(-c2nc(C(F)(F)F)cc(=O)[nH]2)n1` [Compound 41, 2-(5-((2,4-Difluorophenyl)amino)-3-methyl-1H-pyrazol-1-yl)-6-(trifluoromethyl)pyrimidin-4(3H)-one] gave an MIC of 0.2 µM (≈ 0.0743 µg/mL).
For `Cc1cc(Nc2ccc(C#N)cc2)n(-c2nc(C(F)(F)F)cc(=O)[nH]2)n1` [Compound 42, 4-((3-Methyl-1-(6-oxo-4-(trifluoromethyl)-1,6-dihydropyrimidin-2-yl)-1H-pyrazol-5-yl)amino)benzonitrile], the MIC with Mtb H37Rv (setting [4]) and against Mtb H37Rv (setting [3]) was 9 µM (≈ 3.24 µg/mL) each time.
In the case of `Cc1cc(Nc2ccc(C(=O)N(C)C)cc2)n(-c2nc(C(F)(F)F)cc(=O)[nH]2)n1` [Compound 43, N,N-Dimethyl-4-((3-Methyl-1-(6-oxo-4-(trifluoromethyl)-1,6-dihydropyrimidin-2-yl)-1H-pyrazol-5-yl)amino)benzamide], the solubility at 20 h in data set [1] (setting [2]) was no less than 200 µM.
Turning to `Cc1cc(Nc2ccncc2)n(-c2nc(C(F)(F)F)cc(=O)[nH]2)n1` [Compound 44, 2-(3-Methyl-5-(pyridin-4-ylamino)-1H-pyrazol-1-yl)-6-(trifluoromethyl)pyrimidin-4(3H)-one], the solubility at 20 h in data set [1] (phosphate buffered saline, pH 7.4, supplement csv, pH 7.4, read-out: SolubilitypH 7.4) worked out at 22 µM (≈ 7.4 µg/mL).
In the case of `Cc1cc(Nc2ccc(N3CCOCC3)cn2)n(-c2nc(C(F)(F)F)cc(=O)[nH]2)n1` [Compound 46, 2-(3-Methyl-5-((5-morpholinopyridin-2-yl)amino)-1H-pyrazol-1-yl)-6-(trifluoromethyl)pyrimidin-4(3H)-one], the MIC with Mtb H37Rv (setting [4]) and in the data set on Mtb H37Rv (setting [3]) was 2 µM (≈ 0.843 µg/mL) each time.
On to `Cc1nn(-c2nc(C(F)(F)F)cc(=O)[nH]2)c(C)c1Br` [Compound 48, 2-(4-Bromo-3,5-dimethyl-1H-pyrazol-1-yl)-6-(trifluoromethyl)pyrimidin-4(3H)-one], for which the solubility at 20 h in data set [1] (setting [2]) is no less than 200 µM.
Regarding `Cc1nn(-c2nc(C(F)(F)F)cc(=O)[nH]2)c(C)c1N1CCOCC1` [Compound 50, 2-(3,5-Dimethyl-4-morpholino-1H-pyrazol-1-yl)-6-(trifluoromethyl)pyrimidin-4(3H)-one], the MIC against Mtb H37Rv (setting [3]) turned out to be 6 µM (≈ 2.06 µg/mL).
As for `Cc1cc(CN(C)C)nn1-c1nc(C(F)(F)F)cc(=O)[nH]1` [Compound 52, 2-(3-((Dimethylamino)methyl)-5-methyl-1H-pyrazol-1-yl)-6-(trifluoromethyl)pyrimidin-4(3H)-one], the solubility at 20 h in data set [1] (setting [2]) is no less than 200 µM.
For the molecule `CC[C@@H](CO)NCCN[C@@H](CC)CO` [Ethambutol, reference compound], the MIC against WT H37Rv (experiment: Follow-Up) came to 3.8 µM (≈ 0.776 µg/mL); against WT H37Rv (experiment: Initial) it was 2.4 µM (≈ 0.49 µg/mL); against mmpL3-TetON (experiment: Follow-Up), 4.9 µM (≈ 1 µg/mL); with mmpL3-TetON (experiment: Initial), 1.6 µM (≈ 0.327 µg/mL). Also, the MIC50 was 1.4 µM (≈ 0.286 µg/mL) in the data set with WT H37Rv (experiment: Follow-Up), 0.98 µM (≈ 0.2 µg/mL) against WT H37Rv (experiment: Initial), 1.9 µM (≈ 0.388 µg/mL) with mmpL3-TetON (experiment: Follow-Up) and 1.3 µM (≈ 0.266 µg/mL) with mmpL3-TetON (experiment: Initial).
In the case of `CC(C)=CCC/C(C)=C/CNCCNC1C2CC3CC(C2)CC1C3` (stereo not drawn) [SQ109, reference compound], the MIC came out at 0.98 µM (≈ 0.324 µg/mL) against WT H37Rv (experiment: Follow-Up), 0.99 µM (≈ 0.327 µg/mL) against WT H37Rv (experiment: Initial), 0.19 µM (≈ 0.0628 µg/mL) against mmpL3-TetON (experiment: Follow-Up) and 0.27 µM (≈ 0.0893 µg/mL) in the data set on mmpL3-TetON (experiment: Initial). Further, the MIC50 amounted to 0.54 µM (≈ 0.179 µg/mL) against WT H37Rv (experiment: Follow-Up), 0.39 µM (≈ 0.129 µg/mL) in the data set on WT H37Rv (experiment: Initial), 0.1 µM (≈ 0.0331 µg/mL) in the data set with mmpL3-TetON (experiment: Follow-Up) and 0.071 µM (≈ 0.0235 µg/mL) in the data set on mmpL3-TetON (experiment: Initial).

(Values after PMC7816196, “Antitubercular 2-Pyrazolylpyrimidinones: Structure–Activity Relationship and Mode-of-Action Studies” (Journal of Medicinal Chemistry, 2021).)
